Measurements from a compilation of properties of binary mixtures (doi:10.1016/j.molliq.2016.02.091).

Test: xn = mol fraction of the nth substance listed
Settings: 101 kPa

## CC[n+]1ccn(C)c1.COS(=O)(=O)[O-] + CC(=O)O
298.15 K, x2 = 0
  speed of sound: 1758 m/s
298.15 K, x2 = 0.1669
  speed of sound: 1713 m/s
298.15 K, x2 = 0.3003
  speed of sound: 1665 m/s
298.15 K, x2 = 0.5004
  speed of sound: 1593 m/s
298.15 K, x2 = 0.6432
  speed of sound: 1501 m/s
298.15 K, x2 = 0.7503
  speed of sound: 1419 m/s
298.15 K, x2 = 0.9001
  speed of sound: 1274 m/s
298.15 K, x2 = 0.9546
  speed of sound: 1202 m/s
303.15 K, x2 = 0
  speed of sound: 1745 m/s
303.15 K, x2 = 0.1669
  speed of sound: 1702 m/s
303.15 K, x2 = 0.3003
  speed of sound: 1650 m/s
303.15 K, x2 = 0.5004
  speed of sound: 1580 m/s
303.15 K, x2 = 0.7503
  speed of sound: 1403 m/s
303.15 K, x2 = 0.9001
  speed of sound: 1258 m/s
303.15 K, x2 = 0.9783
  speed of sound: 1151 m/s
308.15 K, x2 = 0
  speed of sound: 1734 m/s
308.15 K, x2 = 0.3003
  speed of sound: 1641 m/s
308.15 K, x2 = 0.5004
  speed of sound: 1568 m/s
308.15 K, x2 = 0.6432
  speed of sound: 1473 m/s
308.15 K, x2 = 0.7503
  speed of sound: 1391 m/s
308.15 K, x2 = 0.8336
  speed of sound: 1318 m/s
308.15 K, x2 = 0.9001
  speed of sound: 1246 m/s
308.15 K, x2 = 0.9546
  speed of sound: 1172 m/s
308.15 K, x2 = 0.9783
  speed of sound: 1136 m/s
313.15 K, x2 = 0
  speed of sound: 1723 m/s
313.15 K, x2 = 0.1669
  speed of sound: 1681 m/s
313.15 K, x2 = 0.3003
  speed of sound: 1624 m/s
313.15 K, x2 = 0.6432
  speed of sound: 1456 m/s
313.15 K, x2 = 0.7503
  speed of sound: 1371 m/s
313.15 K, x2 = 0.8336
  speed of sound: 1298 m/s
313.15 K, x2 = 0.9001
  speed of sound: 1225 m/s
313.15 K, x2 = 0.9546
  speed of sound: 1152 m/s
313.15 K, x2 = 0.9783
  speed of sound: 1116 m/s

## CCC(=O)O + CC[n+]1ccn(C)c1.COS(=O)(=O)[O-]
303.15 K, x1 = 1
  speed of sound: 1129 m/s
308.15 K, x1 = 1
  speed of sound: 1110 m/s

## CC[n+]1ccn(C)c1.COS(=O)(=O)[O-] + CCC(=O)O
298.15 K, x2 = 0
  speed of sound: 1758 m/s
298.15 K, x2 = 0.1332
  speed of sound: 1715 m/s
298.15 K, x2 = 0.2478
  speed of sound: 1669 m/s
298.15 K, x2 = 0.4345
  speed of sound: 1590 m/s
298.15 K, x2 = 0.5804
  speed of sound: 1509 m/s
298.15 K, x2 = 0.6975
  speed of sound: 1430 m/s
298.15 K, x2 = 0.7935
  speed of sound: 1356 m/s
298.15 K, x2 = 0.8737
  speed of sound: 1285 m/s
298.15 K, x2 = 0.9417
  speed of sound: 1215 m/s
303.15 K, x2 = 0
  speed of sound: 1745 m/s
303.15 K, x2 = 0.1332
  speed of sound: 1701 m/s
303.15 K, x2 = 0.2478
  speed of sound: 1656 m/s
303.15 K, x2 = 0.4345
  speed of sound: 1576 m/s
303.15 K, x2 = 0.5804
  speed of sound: 1493 m/s
303.15 K, x2 = 0.6975
  speed of sound: 1413 m/s
303.15 K, x2 = 0.7935
  speed of sound: 1339 m/s
303.15 K, x2 = 0.8737
  speed of sound: 1267 m/s
303.15 K, x2 = 0.9417
  speed of sound: 1197 m/s
303.15 K, x2 = 0.9719
  speed of sound: 1162 m/s
308.15 K, x2 = 0
  speed of sound: 1734 m/s
308.15 K, x2 = 0.1332
  speed of sound: 1689 m/s
308.15 K, x2 = 0.2478
  speed of sound: 1642 m/s
308.15 K, x2 = 0.4345
  speed of sound: 1563 m/s
308.15 K, x2 = 0.5804
  speed of sound: 1478 m/s
308.15 K, x2 = 0.6975
  speed of sound: 1396 m/s
308.15 K, x2 = 0.7935
  speed of sound: 1321 m/s
308.15 K, x2 = 0.8737
  speed of sound: 1249 m/s
308.15 K, x2 = 0.9417
  speed of sound: 1178 m/s
308.15 K, x2 = 0.9719
  speed of sound: 1143 m/s
313.15 K, x2 = 0
  speed of sound: 1723 m/s
313.15 K, x2 = 0.1332
  speed of sound: 1678 m/s
313.15 K, x2 = 0.2478
  speed of sound: 1630 m/s
313.15 K, x2 = 0.4345
  speed of sound: 1549 m/s
313.15 K, x2 = 0.5804
  speed of sound: 1462 m/s
313.15 K, x2 = 0.6975
  speed of sound: 1380 m/s
313.15 K, x2 = 0.7935
  speed of sound: 1304 m/s
313.15 K, x2 = 0.8737
  speed of sound: 1231 m/s
313.15 K, x2 = 0.9417
  speed of sound: 1160 m/s

## CC(=O)O + CC[n+]1ccn(C)c1.COS(=O)(=O)[O-]
298.15 K, x1 = 1
  speed of sound: 1133 m/s
303.15 K, x1 = 1
  speed of sound: 1117 m/s
308.15 K, x1 = 1
  speed of sound: 1102 m/s
313.15 K, x1 = 1
  speed of sound: 1082 m/s
